Values quoted from earlier work, collected in patent publication US7364905B2, “Apparatus and method for high throughput analysis of compound-membrane interactions” (TechElan, LLC, priority 2001, dated 2008).

Tested on: Caco-2 cells
Conditions: Caco-2 cell mono-layer versus gut

## OC[C@@H](O)[C@@H](O)[C@H](O)[C@H](O)CO [mannitol]
  rate of permeation through the cell mono-layer relative to through the gut: fifty to three hundred and sixty times lower
